Laboratory results: PubChem BioAssay (NCI)
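GI50 is the concentration that inhibits growth by half. At the TGI there is no net growth.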

Key:
Experiment in all cases: NCI-60 cell line screen, 384-well format
[1] = test system: SK-OV-3 ovarian
[2] = test system: SF-539 CNS
[3] = test system: UACC-62 melanoma
[4] = test system: CAKI-1 renal
[5] = test system: OVCAR-4 ovarian
[6] = test system: EKVX NSCLC
[7] = test system: KM12 colon
[8] = test system: SF-268 CNS
[9] = test system: OVCAR-8 ovarian
[10] = test system: CCRF-CEM leukemia
[11] = test system: HT29 colon
[12] = test system: OVCAR-3 ovarian
[13] = test system: M14 melanoma

O=c1[nH]nc2c3c(cccc13)NC(CN1Cc3ccccc3C1)=N2 gave a GI50 [1] of 3.49 µM, a TGI [1] of over 62.2 µM and a GI50 [2] of 20.9 µM. For the same compound, the TGI [2] was over 100 µM, the GI50 [3] was 7.14 µM and the TGI [3] was over 100 µM. It also gave a GI50 [4] of 2.03 µM, a TGI [4] of over 100 µM and a GI50 [5] of 2.14 µM. For the same compound, the TGI [5] was 12 µM, the GI50 [6] was 3.1 µM and the TGI [6] was over 100 µM. For the same compound, the GI50 [7] was 6.04 µM, the TGI [7] was over 62.4 µM and the GI50 [8] was 4.68 µM. For the same compound, the TGI [8] was 37.2 µM, the GI50 [9] was 5.38 µM and the TGI [9] was over 100 µM. For the same compound, the GI50 [10] was 3.91 µM, the TGI [10] was 15.2 µM and the GI50 [11] was 4.31 µM. For the same compound, the TGI [11] was 26.3 µM, the GI50 [12] was 3.75 µM and the TGI [12] was over 88.3 µM. It also gave a GI50 [13] of 6.09 µM and a TGI [13] of over 100 µM.
